Measurements from patent US20170049843A1, “Hepatocyte Growth Factor Mimics as Therapeutic Agents” (WASHINGTON STATE UNIVERSITY, priority 2011, published 2017).
Entries after “also recorded” stand apart in the source; their conditions may differ. Where a SMILES comes first, the peptide text is derived from it. [ ]: non-standard residue; d: D form. dNle = CCCC[C@@H](N)C(=O)O; Ahx = NCCCCCC(=O)O

Columns and labels:
HGF [1] = target: T1, HGF (Homo sapiens, UniProt P14210); assay: HGF binding, competition with 3H-Hinge
T1 construct: purchased R&D Systems (Minneapolis, Minn.)
T1 sequence (P14210 32-728): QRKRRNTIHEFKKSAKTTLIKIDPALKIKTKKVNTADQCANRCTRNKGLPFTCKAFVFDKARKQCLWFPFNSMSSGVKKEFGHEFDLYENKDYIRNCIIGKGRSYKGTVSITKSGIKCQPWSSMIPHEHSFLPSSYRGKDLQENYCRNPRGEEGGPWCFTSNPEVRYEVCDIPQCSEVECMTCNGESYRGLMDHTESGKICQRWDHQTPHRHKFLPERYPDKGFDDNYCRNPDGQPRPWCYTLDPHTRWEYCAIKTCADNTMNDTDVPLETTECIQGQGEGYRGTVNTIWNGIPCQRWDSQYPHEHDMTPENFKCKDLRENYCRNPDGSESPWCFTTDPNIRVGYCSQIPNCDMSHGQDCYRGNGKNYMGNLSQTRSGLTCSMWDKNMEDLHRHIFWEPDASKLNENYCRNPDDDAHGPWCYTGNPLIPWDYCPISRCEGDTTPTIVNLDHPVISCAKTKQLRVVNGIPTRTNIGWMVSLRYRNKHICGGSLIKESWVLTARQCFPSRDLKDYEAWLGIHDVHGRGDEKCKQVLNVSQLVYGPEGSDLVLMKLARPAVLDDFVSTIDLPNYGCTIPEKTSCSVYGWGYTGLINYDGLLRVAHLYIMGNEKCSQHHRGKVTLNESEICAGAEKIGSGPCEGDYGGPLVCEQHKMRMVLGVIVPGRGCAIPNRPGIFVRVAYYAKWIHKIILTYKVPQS
Protocol: The binding of 6-AH analogs to HGF was assessed by competition using a soluble binding assay. 250 μl of PBS containing human HGF (1.25 ng) were incubated with ^3H-Hinge, the central dimerization domain of HGF, in the presence of varying concentrations of 6-AH analogs between 10^−13 M to 10^−7M (half-log dilutions) for 40 min at 37° C. The incubates were then spun through Bio-Gel P6 spin columns (400 μl packed volume) for 1 min to separate free and bound ^3H-Hinge and the eluent was collected. Five milliliters of scintillation fluid was added to the eluent, which contained the HGF bound ^3H-Hinge, and was then counted using scintillation counter. Total disintegrations per minute of bound ^3H-Hinge were calculated based on machine counting efficiency. The Ki values for the binding of the peptides were determined using the Prism 5. Competition binding curves were performed in triplicate.

HGF [2] = target: T1, HGF; assay: HGF dimerization; type: biochemical; details: analog at 10^−10M, 30 minute incubation with heparin
Protocol: HGF dimerization was assessed using PAGE followed by silver staining (Kawas et al., 2011). Human HGF at a concentration of 0.08 ng/μl with or without 6-AH analogs was incubated with heparin at a final concentration of 5 μg/ml. Loading buffer was then added to each sample and the mixture separated by native PAGE using gradient Criterion XT precast gels (4-12% Bis-Tris; Biorad Laboratories, Hercules, Calif.). Next the gel was silver stained for the detection of the HGF monomers and dimers. Bands were quantitated from digital images using a UVP phosphoimager (Upland, Calif.).

Met = assay: Inhibition of HGF-dependent Met phosphorylation in HEK293 cells; type: cell-based, human; details: 10 min
Protocol: HEK293 cells were seeded in 6 well tissue culture plates and grown to 95% confluency in DMEM containing 10% FBS. The cells were serum deprived for 24 h prior to the treatment to reduce the basal levels of phospho-Met. Following serum starvation, cocktails comprised of vehicle and HGF with/without 6-AH analogs were prepared and pre-incubated for 30 min at room temperature. The cocktail was then added to the cells for 10 min to stimulate the Met receptor and downstream proteins. Cells were harvested using RIPA lysis buffer (Millipore; Billerica, Mass.) fortified with phosphatase inhibitor cocktails 1 and 2 (Sigma-Aldrich; St. Louis, Mo.). The lysate was clarified by centrifugation at 15,000 n×g for 15 min, protein concentrations were determined using the BCA total protein assay (Pierce), and then appropriate volumes of the lysates were diluted with 2× reducing Laemmli buffer and heated for ten min at 95° C. Samples containing identical amounts of protein were resolved using SDS-PAGE (Criterion, BioRad Laboratories), transferred to nitrocellulose, and blocked in Tris-buffered saline (TBS) containing 5% milk for 1 h at room temperature. The phospho-Met antibody were added to the blocking buffer at a final concentration of 1:1000 and incubated at 4° C. overnight with gentle agitation. The membranes were then washed several times with water and TBS ([…]), a 1:5000 dilution of horseradish-peroxidase conjugated goat anti-rabbit antiserum was added, and the membranes further incubated for 1 h at room temperature. Proteins were visualized using the Supersignal West Pico Chemiluminescent Substrate system (Pierce, Fenton, Mo.) and molecular weights determined by comparison to protein ladders (BenchMark, Invitrogen, and Kaleidoscope, BioRad). Film images were digitized and analyzed using a UVP phosphoimager.

MDCK cells [3] = assay: HGF-dependent MDCK cell proliferation (MTT); type: cell-based, canine; details: 10^−10 M, 4 days, HGF 10 ng/ml
Protocol: 5000 MDCK cells were seeded into the wells of a 96 well plates in 10% FBS DMEM. To induce cellular quiescence, the cells were serum deprived for 24 h prior to initiating the treatments. Following serum starvation, 10 ng/ml HGF alone and with various concentrations of 6-AH analogs or PBS vehicle were added to the media. The cells were allowed to grow under these conditions for 4 days with a daily addition of 6-AH analogs. On the fourth day, 1 mg/ml of 1-(4, 5-Dimethylthiazol-2-yl) 3, 5-diphenylformazan reagent (MTT, Sigma-Aldrich) prepared in PBS was added to the cells and incubated for 4 h. Dimethyl sulfoxide diluted in a 0.01M glycine buffer was added to solubilize the cell membranes and the absorbance of reduced MTT in the buffer was quantitated at 590 nm using a plate reader (Biotek Synergy 2, Winooski, Vt.). HGF-dependent proliferation was determined by subtracting the basal proliferation (in the absence of HGF) from total proliferation rates in groups containing HGF.

MDCK cells [4] = assay: Inhibition of HGF-dependent scattering in MDCK cells; type: cell-based, canine; details: HGF 20 ng/ml, 48 h
Protocol: (§1) MDCK cells were grown to 100% confluency on the coverslips in six-well plates and washed twice with PBS. The confluent coverslips were then aseptically transferred to new six well plates containing 900 μl serum free DMEM. Norleual, Hinge peptide, and/or HGF (20 ng/ml) were added to appropriate wells. Control wells received PBS vehicle. Plates were incubated at 37° C. with 5% CO2 for 48 hours. Media was removed and cells were fixed with methanol. Cells were stained with Diff-Quik Wright-Giemsa (Dade-Behring, Newark, Del.) and digital images were taken. Coverslips were removed with forceps and more digital images were captured. Pixel quantification of images was achieved using Image J and statistics were performed using Prism 5 and InStat v.3.05.
as §1, with “h.” for “hours.”, “v.3.05 (GraphPad; San Diego, Calif.).” for “v.3.05.”

[5] = Microsomal metabolism, rat liver microsomes; type: in vitro ADME; details: over 90 min, data not shown
in vivo = details: male, Sprague-Dawley, rat, iv, 24 mg/kg
Protocol: Male Sprague-Dawley rats (250+g) were allowed food (Harlan Teklad rodent diet) and water ad libitum in our AAALAC certified animal facility. Rats were housed in temperature-controlled rooms with a 12 h light/dark cycle. The right jugular veins of the rats were catheterized with sterile polyurethane Hydrocoat™ catheters (Access Technologies, Skokie, Ill., USA) under ketamine (Fort Dodge Animal Health, Fort Dodge, Iowa, USA) and isoflurane (Vet One™, MWI, Meridian, Id., USA) anesthesia. The catheters were exteriorized through the dorsal skin. The catheters were flushed with heparinized saline before and after blood sample collection and filled with heparin-glycerol locking solution (6 mL glycerol, 3 mL saline, 0.5 mL gentamycin (100 mg/mL), 0.5 mL heparin (10,000 u/mL)) when not used for more than 8 h. The animals were allowed to recover from surgery for several days before use in any experiment, and were fasted overnight prior to the pharmacokinetic experiment. […]
Pharmacokinetic analysis was performed using data from individual rats. The mean and standard deviation (SD) were calculated for the group. Non-compartmental pharmacokinetic parameters were calculated from serum drug concentration-time profiles by use of WinNonlin® software (Pharsight, Mountain View, Calif., USA).

[6] = test system: B16-F10 murine melanoma cells; assay: B16-F10 melanoma lung colony formation; type: in vivo, mouse; details: C57BL/6 mice, daily IP 10 μg/kg/day or 100 μg/kg/day, 14 days
Protocol: Six to eight month old C57BL/6 mice were injected with 400,000 B16-F10 cells in 200 μl PBS by tail vein injection and subsequently received daily intraperitoneal injections of either D-Nle-X-Cys-NH—(CH2)5—CONH2 (10 μg/kg and 100 μg/kg) or a PBS vehicle control. Two weeks later, mice were anesthetized and lungs were perfused with PBS and removed. Photos were taken and lungs were solubilized in 1% Triton x-100, 20 mM Tris, 0.15 M NaCl, 2 mM EDTA, and 0.02% sodium azide. Samples were disrupted by sonication (Mixonix, Farmingdale, N.Y.) and spun. The supernatant was transferred to a 96 well plate and melanin absorbance at 410 nm was measured using a plate reader.

CCCC[C@@H](N)C(=O)N[C@@H](Cc1ccc(O)cc1)C(=O)N[C@H](C(=O)NCCCCCC(N)=O)[C@@H](C)CC (H-[dNle]YI[Ahx]-NH2)
affinity for HGF (in words) (HGF [1]): bind HGF with high affinity
inhibition of HGF dimerization (HGF [2]): completely block HGF dimer formation
inhibition of HGF dimerization (HGF [2]; listed as Tyr): statistically different than the HGF treated group
inhibition of HGF-dependent Met phosphorylation (Met): able to block Met auto-phosphorylation
inhibition of HGF-dependent MDCK cell proliferation (MDCK cells [3]): marked inhibitory activity
inhibition of HGF-dependent scattering in MDCK cells (MDCK cells [4]): different from the HGF alone group but not different from the control group
Phase I metabolism in rat liver microsomes [5]: no detectable metabolism over 90 min
C0 (in vivo): 68.2 ± 32.2 µg/mL

CCCC[C@@H](N)C(=O)N[C@@H](CS)C(=O)N[C@H](C(=O)NCCCCCC(N)=O)[C@@H](C)CC [D-Nle-Cys-Ile-NH—(CH2)5—CONH2] (H-[dNle]CI[Ahx]-NH2)
affinity for HGF (in words) (HGF [1]): bind HGF with high affinity
inhibition of HGF dimerization (HGF [2]): completely block HGF dimer formation
inhibition of HGF dimerization (HGF [2]; listed as Cys): statistically different than the HGF treated group
inhibition of HGF-dependent Met phosphorylation (Met): able to block Met auto-phosphorylation
inhibition of HGF-dependent MDCK cell proliferation (MDCK cells [3]): marked inhibitory activity
inhibition of HGF-dependent scattering in MDCK cells (MDCK cells [4]): different from the HGF alone group but not different from the control group
pulmonary colonization by B16-F10 melanoma cells [6]: suppressed pulmonary colonization; also recorded: radically prevented lung colonization; also recorded: obvious reduction in melanoma colonies
